From patent publication US11787825B2 (priority 2021, dated 2023)
In brackets after ≈: the same amount, converted by molar mass. Where two headings read alike, the source gives them in different places.

Columns and labels:
physchem = details: 25 °C, thermodynamic from solid
[1] = 0.1N HCL, 1.0% DMSO, 24-hour incubation at ambient temperature, maximum theoretical compound concentration 100 μM
[2] = 1×PBS buffer (pH 7.4), 1.0% DMSO, 24-hour incubation at ambient temperature, maximum theoretical compound concentration 100 μM
[3] = fed state simulated intestinal fluid (FeSSIF), fessif
[4] = fasted state simulated intestinal fluid (FaSSIF), fassif

| Structure (SMILES) | pH 2 solubility (pH 2) | pH 7 solubility (pH 7.4) | solubility (physchem; fassif) [µg/mL] | pH 2 solubility [1] [μM] | pH 7 solubility [2] [μM] | solubility (physchem; [3]) [µg/mL] | pH 7 solubility | solubility (physchem; [4]) [µg/mL] | solubility (physchem; fessif) [µg/mL] |
| --- | --- | --- | --- | --- | --- | --- | --- | --- | --- |
| Cc1cc(C(=O)N[C@@H](CC(=O)O)C(=O)O)cc(OP(=O)(O)O)c1C(C)(C)CC(=O)N(c1nn(CC(F)(F)F)c2c(-c3ccc(C#CC(C)(C)S(C)(=O)=O)nc3[C@H](Cc3cc(F)cc(F)c3)NC(=O)Cn3nc(C(F)(F)F)c4c3C(F)(F)[C@@H]3C[C@H]43)ccc(Cl)c12)S(C)(=O)=O [Compound 65, (4-(4-(N-(4-chloro-7-(2-((S)-1-(2-((3bS,4aR)-5,5-difluoro-3-(trifluoromethyl)-3b,4,4a,5-tetrahydro-1H-cyclopropa[3,4]cyclopenta[1,2-c]pyrazol-1-yl)acetamido)-2-(3,5-difluorophenyl)ethyl)-6-(3-methyl-3-(methylsulfonyl)but-1-yn-1-yl)pyridin-3-yl)-1-(2,2,2-trifluoroethyl)-1H-indazol-3-yl)methylsulfonamido)-2-methyl-4-oxobutan-2-yl)-3-methyl-5-(phosphonooxy)benzoyl)-L-aspartic acid] | 7/68 μM | 7/68 μM | 1100 (≈ 787 µM) |  |  |  |  |  |  |
| CN(CC(=O)N(c1nn(CC(F)(F)F)c2c(-c3ccc(C#CC(C)(C)S(C)(=O)=O)nc3[C@H](Cc3cc(F)cc(F)c3)NC(=O)Cn3nc(C(F)(F)F)c4c3C(F)(F)[C@@H]3C[C@H]43)ccc(Cl)c12)S(C)(=O)=O)C(=O)OCOP(=O)(O)O [Compound 37, (phosphonooxy)methyl (2-(N-(4-chloro-7-(2-((S)-1-(2-((3bS,4aR)-5,5-difluoro-3-(trifluoromethyl)-3b,4,4a,5-tetrahydro-111-cyclopropa[3,4]cyclopenta[1,2-c]pyrazol-1-yl)acetamido)-2-(3,5-difluorophenyl)ethyl)-6-(3-methyl-3-(methylsulfonyl)but-1-yn-1-yl)pyridin-3-yl)-1-(2,2,2-trifluoroethyl)-1H-indazol-3-yl)methylsulfonamido)-2-oxoethyl)(methyl)carbamate] |  |  | 674 (≈ 565 µM) | 1 | 79 |  |  |  |  |
| C[C@H](NC(=O)OCOP(=O)(O)O)C(=O)N(c1nn(CC(F)(F)F)c2c(-c3ccc(C#CC(C)(C)S(C)(=O)=O)nc3[C@H](Cc3cc(F)cc(F)c3)NC(=O)Cn3nc(C(F)(F)F)c4c3C(F)(F)[C@@H]3C[C@H]43)ccc(Cl)c12)S(C)(=O)=O [Compound 36, (phosphonooxy)methyl ((S)-1-(N-(4-chloro-7-(2-((S)-1-(2-((3bS,4aR)-5,5-difluoro-3-(trifluoromethyl)-3b,4,4a,5-tetrahydrocyclopropa[3,4]cyclopenta[1,2-c]pyrazol-1-yl)acetamido)-2-(3,5-difluorophenyl)ethyl)-6-(3-methyl-3-(methylsulfonyl)but-1-yn-1-yl)pyridin-3-yl)-1-(2,2,2-trifluoroethyl)-1H-indazolyl)methylsulfonamido)-1-oxopropan-2-yl)carbamate] |  |  | 661 (≈ 554 µM) | 3 | 100 |  |  |  |  |
| CN(C)CC(=O)N(c1nn(CC(F)(F)F)c2c(-c3ccc(C#CC(C)(C)S(C)(=O)=O)nc3[C@H](Cc3cc(F)cc(F)c3)NC(=O)Cn3nc(C(F)(F)F)c4c3C(F)(F)[C@@H]3C[C@H]43)ccc(Cl)c12)S(C)(=O)=O [Compound 4, N-(4-chloro-7-(2-((S)-1-(2-((3bS,4aR)-5,5-difluoro-3-(trifluoromethyl)-3b,4,4a,5-tetrahydro-1H-cyclopropa[3,4]cyclopenta[1,2-c]pyrazol-1-yl)acetamido)-2-(3,5-difluorophenyl)ethyl)-6-(3-methyl-3-(methylsulfonyl)but-1-yn-1-yl)pyridin-3-yl)-1-(2,2,2-trifluoroethyl)-1H-indazol-3-yl)-2-(dimethylamino)-N-(methylsulfonyl)acetamide] |  |  |  | 42 | 1 | 6 (≈ 5.7 µM) |  |  |  |
| CC(C)(C#Cc1ccc(-c2ccc(Cl)c3c(N(C(=O)/C=C/C(=O)N[C@@H](CC(=O)O)C(=O)O)S(C)(=O)=O)nn(CC(F)(F)F)c23)c([C@H](Cc2cc(F)cc(F)c2)NC(=O)Cn2nc(C(F)(F)F)c3c2C(F)(F)[C@@H]2C[C@H]32)n1)S(C)(=O)=O [Compound 2, ((E)-4-(N-(4-chloro-7-(2-((S)-1-(2-((3bS,4aR)-5,5-difluoro-3-(trifluoromethyl)-3b,4,4a,5-tetrahydro-1H-cyclopropa[3,4]cyclopenta[1,2-c]pyrazolyl)acetamido)-2-(3,5-difluorophenyl)ethyl)-6-(3-methyl-3-(methylsulfonyl)but-1-ynyl)pyridin-3-yl)-1-(2,2,2-trifluoroethyl)-1H-indazol-3-yl)methylsulfonamido)-4-oxobutenoyl)-L-aspartic acid] | 1/95 μM |  |  |  |  | 655 (≈ 554 µM) | 1/95 μM | 810 (≈ 686 µM) |  |
| Cc1cc(C(=O)NCP(=O)(O)O)cc(OP(=O)(O)O)c1C(C)(C)CC(=O)N(c1nn(CC(F)(F)F)c2c(-c3ccc(C#CC(C)(C)S(C)(=O)=O)nc3[C@H](Cc3cc(F)cc(F)c3)NC(=O)Cn3nc(C(F)(F)F)c4c3C(F)(F)[C@@H]3C[C@H]43)ccc(Cl)c12)S(C)(=O)=O [Compound 60, ((4-(4-(N-(4-chloro-7-(2-((S)-1-(2-((3bS,4aR)-5,5-difluoro-3-(trifluoromethyl)-3b,4,4a,5-tetrahydro-1H-cyclopropa[3,4]cyclopenta[1,2-c]pyrazol-1-yl)acetamido)-2-(3,5-difluorophenyl)ethyl)-6-(3-methyl-3-(methylsulfonyl)but-1-yn-1-yl)pyridin-3-yl)-1-(2,2,2-trifluoroethyl)-1H-indazol-3-yl)methylsulfonamido)-2-methyl-4-oxobutan-2-yl)-3-methyl-5-(phosphonooxy)benzamido)methyl)phosphonic acid] | 1/64 μM | 1/64 μM | > 10000 |  |  |  |  |  |  |
| C[C@H](N)C(=O)N(c1nn(CC(F)(F)F)c2c(-c3ccc(C#CC(C)(C)S(C)(=O)=O)nc3[C@H](Cc3cc(F)cc(F)c3)NC(=O)Cn3nc(C(F)(F)F)c4c3C(F)(F)[C@@H]3C[C@H]43)ccc(Cl)c12)S(C)(=O)=O [Compound 18, (S)-2-amino-N-(4-chloro-7-(2-((S)-1-(2-((3bS,4aR)-5,5-difluoro-3-(trifluoromethyl)-3b,4,4a,5-tetrahydro-1H-cyclopropa[3,4]cyclopenta[1,2-c]pyrazol-1-yl)acetamido)-2-(3,5-difluorophenyl)ethyl)-6-(3-methyl-3-(methylsulfonyl)but-1-yn-1-yl)pyridin-3-yl)-1-(2,2,2-trifluoroethyl)-1H-indazol-3-yl)-N-(methylsulfonyl)propenamide] |  |  |  | 60 | 1 | 0.4 (≈ 0.385 µM) |  | 0.5 (≈ 0.481 µM) |  |
| CC(C)(C#Cc1ccc(-c2ccc(Cl)c3c(N(C(=O)CC4(CN(CC(=O)O)C(=O)OCOP(=O)(O)O)CC4)S(C)(=O)=O)nn(CC(F)(F)F)c23)c([C@H](Cc2cc(F)cc(F)c2)NC(=O)Cn2nc(C(F)(F)F)c3c2C(F)(F)[C@@H]2C[C@H]32)n1)S(C)(=O)=O [Compound 39] |  |  |  | 1 | 87 | 3870 (≈ 3000 µM) |  | 1190 (≈ 921 µM) |  |
| Cc1cc(CP(=O)(O)O)cc(OP(=O)(O)O)c1C(C)(C)CC(=O)N(c1nn(CC(F)(F)F)c2c(-c3ccc(C#CC(C)(C)S(C)(=O)=O)nc3[C@H](Cc3cc(F)cc(F)c3)NC(=O)Cn3nc(C(F)(F)F)c4c3C(F)(F)[C@@H]3C[C@H]43)ccc(Cl)c12)S(C)(=O)=O [Compound 56, (4-(4-(N-(4-chloro-7-(2-((S)-1-(2-((3bS,4aR)-5,5-difluoro-3-(trifluoromethyl)-3b,4,4a,5-tetrahydro-1H-cyclopropa[3,4]cyclopenta[1,2-c]pyrazolyl)acetamido)-2-(3,5-difluorophenyl)ethyl)-6-(3-methyl-3-(methylsulfonyl)but-1-ynyl)pyridin-3-yl)-1-(2,2,2-trifluoroethyl)-1H-indazol-3-yl)methylsulfonamido)-2-methyloxobutan-2-yl)-3-methyl-5-(phosphonooxy)benzyl)phosphonic acid] | 1/100 μM | 1/100 μM | > 10000 |  |  |  |  |  |  |
| CN(C(=O)N(c1nn(CC(F)(F)F)c2c(-c3ccc(C#CC(C)(C)S(C)(=O)=O)nc3[C@H](Cc3cc(F)cc(F)c3)NC(=O)Cn3nc(C(F)(F)F)c4c3C(F)(F)[C@@H]3C[C@H]43)ccc(Cl)c12)S(C)(=O)=O)c1ccccc1OP(=O)(O)O [Compound 54, 2-(3-(4-chloro-7-(2-((S)-1-(2-((3bS,4aR)-5,5-difluoro-3-(trifluoromethyl)-3b,4,4a,5-tetrahydro-1H-cyclopropa[3,4]cyclopenta[1,2-c]pyrazol-1-yl)acetamido)-2-(3,5-difluorophenyl)ethyl)-6-(3-methyl-3-(methylsulfonyl)but-1-yn-1-yl)pyridin-3-yl)-1-(2,2,2-trifluoroethyl)-1H-indazol-3-yl)-1-methyl-3-(methylsulfonyl)ureido)phenyl dihydrogen phosphate] | 1/63 μM | 1/63 μM | 1090 |  |  |  |  |  | 561 |
| CC(C)(C#Cc1ccc(-c2ccc(Cl)c3c(N(C(=O)/C=C/C(=O)O)S(C)(=O)=O)nn(CC(F)(F)F)c23)c([C@H](Cc2cc(F)cc(F)c2)NC(=O)Cn2nc(C(F)(F)F)c3c2C(F)(F)[C@@H]2C[C@H]32)n1)S(C)(=O)=O [Compound 1, (E)-4-(N-(4-chloro-7-(2-((S)-1-(2-((3bS,4aR)-5,5-difluoro-3-(trifluoromethyl)-3b,4,4a,5-tetrahydro-1H-cyclopropa[3,4]cyclopenta[1,2-c]pyrazol-1-yl)acetamido)-2-(3,5-difluorophenyl)ethyl)-6-(3-methyl-3-(methylsulfonyl)but-1-yn-1-yl)pyridin-3-yl)-1-(2,2,2-trifluoroethyl)-1H-indazol-3-yl)methylsulfonamido)-4-oxobut-2-enoic acid] | 1/86 μM |  |  |  |  | 45 (≈ 42.2 µM) | 1/86 μM | 321 (≈ 301 µM) |  |
